Where two headings read alike, the source gives them in different places. Marks after values point to notes of the source that are not given here.
Legend:
α-glucosidase = α-glucosidase (Saccharomyces cerevisiae, UniProt P53341); assay: α-glucosidase inhibition assay (pNPG); format: biochemical
Experimental: The fractions from B. javanica seeds were evaluated as GP-α inhibitors and were further tested for their α-glucosidase inhibitory activity as described previously. Briefly, 50 μL of samples or standard were mixed with 100 μL of α-glucosidase (0.1 U/mL) in phosphate buffer (0.1 M, pH 6.9) and incubated at 37 °C for 10 min. The reactions were initiated by addition of p-Nitrophenyl α-D-Glucoside (p-NPG, 50 μL) in phosphate buffer (0.1 M, pH 6.9) and incubated again at 37 °C for 30 min. The reactions were terminated using NaCO3 (1 M, 50 μL). […] Phosphate buffer (50 μL) was used as control. Blank readings (without substrate) were subtracted from specific sample wells and the percentage of α-Glucosidase inhibition (αGI) was calculated as following formula: αGI (%) = [(Acontrol – Asample)/Acontrol] × 100 [22].
α-glucosidase inhibition activity of isolated compounds were determined according to the method described in section 2.3 and GP-α inhibition activity was measured according to our previously reported method.

[1] = biological target: T1, glycogen phosphorylase α (GP-α) (Oryctolagus cuniculus, UniProt P00489); assay: GP-α inhibition assay; format: biochemical
T1 sequence (P00489 2-843 limits assumed): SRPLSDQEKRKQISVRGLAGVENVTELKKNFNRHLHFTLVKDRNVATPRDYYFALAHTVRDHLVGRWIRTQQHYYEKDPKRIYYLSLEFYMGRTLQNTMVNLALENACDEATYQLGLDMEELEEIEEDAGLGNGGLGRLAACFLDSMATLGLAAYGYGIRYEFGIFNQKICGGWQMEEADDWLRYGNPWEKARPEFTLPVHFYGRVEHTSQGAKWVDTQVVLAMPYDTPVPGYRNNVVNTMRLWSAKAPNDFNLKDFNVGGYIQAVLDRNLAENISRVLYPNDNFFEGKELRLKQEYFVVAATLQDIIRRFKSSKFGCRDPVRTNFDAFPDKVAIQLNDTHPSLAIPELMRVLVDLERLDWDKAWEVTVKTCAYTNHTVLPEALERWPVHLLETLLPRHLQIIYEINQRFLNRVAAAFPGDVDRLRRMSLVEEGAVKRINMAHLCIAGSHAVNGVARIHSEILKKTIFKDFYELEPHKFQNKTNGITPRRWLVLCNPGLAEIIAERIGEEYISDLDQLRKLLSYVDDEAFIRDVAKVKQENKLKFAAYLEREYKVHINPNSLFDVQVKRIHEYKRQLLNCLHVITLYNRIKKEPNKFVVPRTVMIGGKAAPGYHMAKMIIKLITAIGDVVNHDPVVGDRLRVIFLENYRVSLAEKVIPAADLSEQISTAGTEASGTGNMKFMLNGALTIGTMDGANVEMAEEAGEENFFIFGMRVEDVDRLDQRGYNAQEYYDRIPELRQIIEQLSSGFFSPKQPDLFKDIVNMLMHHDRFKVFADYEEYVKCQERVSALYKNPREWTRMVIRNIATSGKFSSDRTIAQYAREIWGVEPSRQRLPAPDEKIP

[2] = test system: STZ-induced diabetic rats; details: 1 mg/kg b.w., 0-8 h screening; cited from earlier work
nondiabetic mice = details: 1 mg/kg b.w., 0-8 h screening; cited from earlier work
Body weights in T2D rats = format: in vivo, Sprague Dawley (SD) rats; details: 10 mg/kg/day b.w. oral
Experimental: (§1) After diabetes was confirmed, rats were divided into specific groups which were mentioned in the section of treatment protocol above. Fasting blood glucose (FBG) levels and body weight of rats were measured and it was considered as 0 day. The extracts and standard drug were administered orally on a daily base in single dose for 28 days. At the end of each week, animals were fasted overnight and body weights were recorded using electronic balance. Blood samples were obtained from the tail vein of the rats by Accu-Chek FastClix lancing device and blood glucose levels were analysed using glucose meter (Accu-check, Roche Diagnostics, USA).

[3] = test system: NA-STZ induced type 2 diabetic (T2D) rats; assay: Serum MDA and GSH levels in T2D rats; format: in vivo, Sprague Dawley (SD) rats; details: 10 mg/kg
Experimental: (§2) At the end of study period, rats were fasted overnight, anesthetized, and the blood sample was collected by cardiac puncture. At the end, the rats were sacrificed by cervical dislocation. The blood sample was centrifuged 2000 x g for 15 minute at 4 °C, serum was collected and stored at −80 °C until analyses. The liver was carefully removed, washed in ice-cold phosphate buffered saline (PBS, pH 7.4) to remove the blood. A piece of liver sample was rinsed in liquid nitrogen, stored at −80 °C for glycogen assay.
The malondialdehyde (MDA), a byproduct of lipid peroxidation, and glutathione (GSH), a marker of antioxidant defense, were quantified by commercial kit (Cayman chemical company, Ann Arbor, MI, USA) according to the manufacturer’s instructions.

[4] = test system: NA-STZ induced type 2 diabetic (T2D) rats; assay: Serum insulin levels and HOMA-IR in T2D rats; format: in vivo, Sprague Dawley (SD) rats; details: 10 mg/kg, 4 weeks, not significant
Experimental: as §2
The serum insulin levels were quantified by using rat insulin ELISA kit (Mercodia AB, Uppsala, Sweden) according to the manufacturer’s instructions. Insulin resistance (IR) was calculated according to the homeostasis model assessment by using the following equation [24] HOMA−IR=glucosemmol/L×insulinμU/mL/22.5

[5] = test system: NA-STZ induced type 2 diabetic (T2D) rats; assay: Oral glucose tolerance test (OGTT) in T2D rats; format: in vivo, Sprague Dawley (SD) rats; details: 10 mg/kg
Experimental: On the 25th day of treatment, the OGTT was carried out according to the previously reported method. All animals were fasted overnight (16 h) before commencing the experiments. Group I (non-diabetic control) and Group II (diabetic control) weretreated with distilled water, Group III and Group IV were given EAF (25 and 50 mg/kg b.w), and Group V was given glibenclamide (10 mg/kg b.w.) using oral gavage, respectively. After 30 min, α-D-glucose (2 g/kg b.w.) was administered orally into all groups of rats. Blood samples were collected from the tail vein at 0 (immediately after glucose load), 30, 60, 90, and 120 min, and blood glucose levels were determined by glucose oxidase method using a commercial glucose meter (Roche, USA). […] AUCglucose=C1+C2/2×t2−t1
Where, C1 and C2 are concentrations of glucose at different time points; t1 and t2 are different tested time points.

[6] = test system: NA-STZ induced type 2 diabetic (T2D) rats; assay: Fasting blood glucose levels in NA-STZ T2D rats, 28-day oral treatment; format: in vivo, Sprague Dawley (SD) rats; details: for Fasting blood glucose level: 10 mg/kg/day b.w. oral
Experimental: The experimental rats were fasted overnight (16 h) and diabetes was induced by single intraperitoneal (i.p) injection of STZ (60 mg/kg b.w.) freshly prepared in 0.1 M citrate buffer (pH 4.5) 15 min after i.p injection of NA (100 mg/kg b.w.) dissolved in normal saline. Diabetes was confirmed 3 weeks after NA-STZ induction by measuring tail vein blood glucose levels using glucose meter (Accu-check Performa, Rochi diagnostic, USA). The rats having blood glucose levels higher than 11 mmol/L were considered as diabetic and selected for study.
The experimental rats were divided into 5 groups (n = 6; 3 M/3 F) as following. Group I: non-diabetic control (NDC) and Group II: diabetic control (DC) consisted of rats were allowed to free access of water; Group III and IV were treated orally with EAF (25 and 50 mg/kg/day b.w.) diluted in distilled water, Group V was treated orally with Glibenclamide (10 mg/kg/day b.w.) and served as standard drug. All groups except group 1 are diabetic. The selected doses (25 and 50 mg/kg/day b.w) were based on prior acute oral toxicity study.
as §1

[7] = test system: NA-STZ induced type 2 diabetic (T2D) rats; assay: Serum lipid profiles in T2D rats; format: in vivo, Sprague Dawley (SD) rats; details: 10 mg/kg, 4 weeks
Experimental: as §2
(§3) The levels of serum total cholesterol (TC), triglycerides (TG), low density lipoprotein cholesterol (LDL-C), and high density lipoprotein cholesterol (HDL-C), total protein, alkaline phosphatase (ALP), alanine aminotransferase (ALT), aspartate aminotransferase (AST), urea, creatinine were analyzed using automatic biochemical analyzer (Beckman-700, Fullerton, CA, USA)

[8] = test system: NA-STZ induced type 2 diabetic (T2D) rats; assay: Liver glycogen contents in T2D rats; format: in vivo, Sprague Dawley (SD) rats; details: 10 mg/kg b.w.
Experimental: as §2
The glycogen contents in the liver were measured using a glycogen assay kit (Ann Arbor, MI, USA) according to the manufacturer’s instructions.

[9] = test system: NA-STZ induced type 2 diabetic (T2D) rats; assay: Serum cytokine levels (ELISA) in T2D rats; format: in vivo, Sprague Dawley (SD) rats; details: 10 mg/kg b.w.
Experimental: as §2
The quantification of cytokine in the serum was assessed by enzyme-linked immunosorbent assay (ELISA) using commercial kits for rat TNF-α, rat IL-6, and rat IL-1β (eBioscience, San Diego, CA USA) according to the manufacturer’s instructions.

[10] = test system: NA-STZ induced type 2 diabetic (T2D) rats; assay: Liver and renal function markers in T2D rats; format: in vivo, Sprague Dawley (SD) rats; details: 10 mg/kg b.w., 4 weeks, serum
Experimental: as §2, §3

[11] = isolated compounds, read-out: Glycogen phosphorylase α IC50

Chain of α-glucosidase (P53341 whole entry): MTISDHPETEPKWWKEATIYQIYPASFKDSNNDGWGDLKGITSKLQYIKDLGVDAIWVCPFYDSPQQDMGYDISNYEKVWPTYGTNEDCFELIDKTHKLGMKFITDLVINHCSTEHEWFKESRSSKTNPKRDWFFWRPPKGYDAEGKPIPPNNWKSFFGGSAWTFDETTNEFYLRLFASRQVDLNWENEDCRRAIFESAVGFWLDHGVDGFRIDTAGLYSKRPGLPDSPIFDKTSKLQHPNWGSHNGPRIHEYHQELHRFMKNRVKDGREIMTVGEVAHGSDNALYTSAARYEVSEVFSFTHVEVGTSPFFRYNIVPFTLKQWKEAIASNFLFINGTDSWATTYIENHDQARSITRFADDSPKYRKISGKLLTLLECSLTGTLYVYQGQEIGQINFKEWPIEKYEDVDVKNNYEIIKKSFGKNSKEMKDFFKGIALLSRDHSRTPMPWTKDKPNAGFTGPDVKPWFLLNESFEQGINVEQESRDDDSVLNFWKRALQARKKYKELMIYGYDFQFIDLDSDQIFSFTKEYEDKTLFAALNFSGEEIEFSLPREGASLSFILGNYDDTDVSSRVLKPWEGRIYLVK

COc1cc(C(=O)O)ccc1O [Compound 1, vanillic acid]
α-glucosidase inhibition (α-glucosidase): no inhibition
α-glucosidase inhibition (α-glucosidase; concentrations tested up to 6 mM): did not inhibit
GP-α inhibition [1]: no inhibition
inhibition at 12000 µM ([1]; at 12 mM): 22.9%

CC1=CC(=O)[C@@H](O)[C@]2(C)[C@H]3[C@@H](O)[C@H](O)[C@]4(C)OC[C@@]35[C@@H](C[C@@H]12)OC(=O)[C@H](O)[C@]54O [Compound 2, bruceine D]
α-glucosidase inhibition (α-glucosidase): no inhibition
inhibitory activity against α-glucosidase (α-glucosidase; at 2.5 mM): 14.74%
blood glucose effect [2]: blood glucose lowering effect
GP-α inhibition [1]: no inhibition
blood glucose effect (nondiabetic mice): blood glucose lowering effect

CC1=C[C@H](O)[C@@H](O)[C@]2(C)[C@H]3[C@@H](O)[C@H](O)[C@@]4(C)OC[C@@]35[C@@H](C[C@@H]12)OC(=O)[C@H](O)[C@]54O [Compound 3, bruceine E]
α-glucosidase inhibition (α-glucosidase): no inhibition
inhibition at 2500 µM (α-glucosidase; at 2.5 mM, read-out: inhibitory activity against α-glucosidase): 16.1%
blood glucose effect [2]: blood glucose lowering effect
GP-α inhibition [1]: no inhibition
inhibition at 5000 µM ([1]; at 5 mM, read-out: inhibitory activity against GP-α): 32.7%
blood glucose effect (nondiabetic mice): blood glucose lowering effect

O=C(O)c1ccc(O)cc1 [Compound 4, Para-hydroxybenzoic acid]
IC50 [1, 11]: 357.88 ± 0.07 µM

O=c1cc(-c2ccc(O)c(O)c2)oc2cc(O)cc(O)c12 [Compound 5, luteolin]
α-glucosidase inhibitory potency relative to acarbose (α-glucosidase; vs acarbose): 5.5 fold
IC50 [1, 11]: 45.08 ± 0.04 µM
GP-α inhibitory potency relative to caffeine ([1]; vs caffeine): 10 fold

O=C(O)c1ccc(O)c(O)c1 [Compound 6, protocatechuic acid]
IC50 [1, 11]: 297.37 ± 0.13 µM

O=C(O)c1cc(O)c(O)c(O)c1 [Compound 7, gallic acid]
IC50 [1]: 214.38 ± 0.12 µM

COc1ccc(Cl)cc1C(=O)NCCc1ccc(S(=O)(=O)NC(=O)NC2CCCCC2)cc1 [Glibenclamide, glibenclamide]
Body Weight (Body weights in T2D rats; 0 Day): 211.00 ± 6.19 g
Body Weight (Body weights in T2D rats; Day 7): 203.50 ± 8.90 g
Body Weight (Body weights in T2D rats; Day 14): 205.83 ± 7.31 g
Body Weight (Body weights in T2D rats; Day 21): 206.00 ± 6.64 g
Body Weight (Body weights in T2D rats; Day 28): 209.33 ± 7.91 g
reduction of serum MDA level compared to DC group [3]: about 36.45%
increase of serum GSH level compared to DC group ([3]; not significant): about 18.94%
increase of serum insulin compared to diabetic control group [4]: 16.5%
decrease of AUC for glucose 0 to 120 min compared to DC group [5]: 57.42%
OGTT blood glucose reduction at 120 min compared to the values at 30 min ([5]; day 25, glucose 2 g/kg): 29.97%
reduction of FBG levels compared to initial day ([6]; 10 mg/kg b.w. once a day for 28 days): 45.44%
Fasting blood glucose level ([6]; 0 Day): 16.90 ± 1.63 mmol/L
Fasting blood glucose level ([6]; Day 7): 17.63 ± 2.13 mmol/L
Fasting blood glucose level ([6]; Day 14): 12.97 ± 0.72 mmol/L
Fasting blood glucose level ([6]; Day 21): 11.83 ± 1.27 mmol/L
Fasting blood glucose level ([6]; Day 28): 9.22 ± 0.65^a mmol/L
Serum HDL [7]: 1.31 ± 0.08^a mmol/L
Serum LDL [7]: 0.59 ± 0.04^a mmol/L
Serum TC [7]: 1.12 ± 0.05^c mmol/L
Serum TG [7]: 0.52 ± 0.09^b mmol/L
LG (liver glycogen) [8]: 11.55 ± 1.82 mg/g tissue
IL-1β [9]: 570.67 ± 31.71^b pg/ml
IL-6 [9]: 123.06 ± 10.18^b pg/ml
TNF-α [9]: 70.10 ± 4.00^b pg/ml
ALP [10]: 146.67 ± 10.50 U/L
ALT [10]: 58.17 ± 4.52 U/L
AST [10]: 138.83 ± 8.33 U/L
Creatinine [10]: 29.00 ± 0.93 µmol/L
Urea [10]: 10.37 ± 1.80 mmol/L
